Test results reported in the CheMixHub ionic liquid set.

Experiment: xn = mol fraction of the nth substance listed

CCCC[n+]1ccn(C)c1.F[P-](F)(F)(F)(F)F + C1CCOC1
Conditions	viscosity [mPa·s]
298.15 K, 101 kPa, x2 = 0.195	91

CC#N + C=C[n+]1ccn(CC(N)=O)c1.O=S(=O)([N-]S(=O)(=O)C(F)(F)F)C(F)(F)F
Conditions	viscosity [mPa·s]
323.15 K, 100 kPa, x2 = 0	0.262

CCCC[n+]1ccn(C)c1.O=S(=O)([N-]S(=O)(=O)C(F)(F)F)C(F)(F)F + CC1CC(=O)O1
100 kPa, frequency 0.01 MHz, x1 = 1
Conditions	electrical conductivity [S/m]
293.15 K	0.337
298.15 K	0.4
303.15 K	0.472
308.15 K	0.552
313.15 K	0.64
318.15 K	0.733
323.15 K	0.835

CCCC[n+]1ccn(C)c1.O=S(=O)([N-]S(=O)(=O)C(F)(F)F)C(F)(F)F + CC1CCC(=O)O1
100 kPa, frequency 0.01 MHz, x1 = 1
Conditions	electrical conductivity [S/m]
293.15 K	0.337
298.15 K	0.4
303.15 K	0.472
308.15 K	0.552
313.15 K	0.64
318.15 K	0.733
323.15 K	0.835

CCCC[n+]1ccn(C)c1.O=S(=O)([N-]S(=O)(=O)C(F)(F)F)C(F)(F)F + CC1COC(=O)O1
101.3 kPa, x1 = 1
Conditions	viscosity [mPa·s]
288.15 K	80.3
308.15 K	33.95
328.15 K	17.98

CC[N+](CC)(CC)CC.F[B-](F)(F)F + CC1COC(=O)O1
101 kPa
Conditions	viscosity [mPa·s]
283.15 K, x1 = 0.001044	3.574
283.15 K, x1 = 0.001302	3.581
283.15 K, x1 = 0.001888	3.591
283.15 K, x1 = 0.003069	3.625
283.15 K, x1 = 0.003925	3.642
283.15 K, x1 = 0.005619	3.663
283.15 K, x1 = 0.007445	3.702
283.15 K, x1 = 0.009039	3.739
283.15 K, x1 = 0.01054	3.769
283.15 K, x1 = 0.01391	3.835
283.15 K, x2 = 0.9206	5.439
283.15 K, x2 = 0.9274	5.243
283.15 K, x2 = 0.9419	4.842
283.15 K, x2 = 0.9434	4.813
283.15 K, x2 = 0.9551	4.515
283.15 K, x2 = 0.9624	4.356
283.15 K, x2 = 0.9701	4.177
298.15 K, x1 = 0.001682	2.557
298.15 K, x1 = 0.003455	2.58
298.15 K, x1 = 0.004813	2.598
298.15 K, x1 = 0.006017	2.613
298.15 K, x1 = 0.007139	2.628
298.15 K, x1 = 0.008167	2.641
298.15 K, x1 = 0.009079	2.657
298.15 K, x1 = 0.01102	2.68
298.15 K, x1 = 0.01252	2.701
298.15 K, x1 = 0.01813	2.774
298.15 K, x2 = 0.9206	3.716
298.15 K, x2 = 0.9283	3.58
298.15 K, x2 = 0.9528	3.189
298.15 K, x2 = 0.971	2.924
308.15 K, x1 = 0.001119	2.101
308.15 K, x1 = 0.003553	2.127
308.15 K, x1 = 0.005754	2.15
308.15 K, x1 = 0.006805	2.161
308.15 K, x1 = 0.007615	2.17
308.15 K, x1 = 0.008953	2.182
308.15 K, x1 = 0.01146	2.209
308.15 K, x1 = 0.01324	2.228
308.15 K, x2 = 0.9174	3.043
308.15 K, x2 = 0.9215	2.977
308.15 K, x2 = 0.9382	2.775
308.15 K, x2 = 0.9417	2.728
308.15 K, x2 = 0.9539	2.586
308.15 K, x2 = 0.9711	2.396
308.15 K, x2 = 0.9798	2.303
313.15 K, x1 = 0.00395	1.953
313.15 K, x1 = 0.004693	1.963
313.15 K, x1 = 0.005951	1.972
313.15 K, x1 = 0.00774	1.988
313.15 K, x1 = 0.009433	2.003
313.15 K, x1 = 0.01082	2.018
313.15 K, x2 = 0.9272	2.638
313.15 K, x2 = 0.9371	2.531
313.15 K, x2 = 0.9469	2.429
313.15 K, x2 = 0.9574	2.325
313.15 K, x2 = 0.9712	2.185
313.15 K, x2 = 0.9797	2.106

CCCC[n+]1ccn(C)c1.F[P-](F)(F)(F)(F)F + CC#N
298.15 K, 101 kPa
Conditions	electrical conductivity [S/m]	viscosity [mPa·s]
x2 = 0	0.157	260
x2 = 0.099	0.245	153
x2 = 0.1938	0.374	93
x2 = 0.1945	–	86
x2 = 0.2936	0.552	53.6
x2 = 0.3885	0.84	31.3
x2 = 0.4978	1.3	16.2
x2 = 0.5896	1.84	8.8
x2 = 0.6994	2.71	4.18
x2 = 0.7855	3.46	2.27
x2 = 0.846	3.93	1.48
x2 = 0.8918	4.18	1.08

CCCC[n+]1ccn(C)c1.O=S(=O)([N-]S(=O)(=O)C(F)(F)F)C(F)(F)F + CC#N
Conditions	electrical conductivity, x1 = 0.0063 [S/m]	electrical conductivity, x1 = 0.01076 [S/m]	electrical conductivity, x2 = 0.661 [S/m]	electrical conductivity, x2 = 0.905 [S/m]	viscosity, x2 = 0 [mPa·s]	viscosity, x2 = 0.1534 [mPa·s]	viscosity, x2 = 0.2508 [mPa·s]	viscosity, x2 = 0.602 [mPa·s]	viscosity, x2 = 0.7518 [mPa·s]
294.5 K, 100 kPa	–	1.58	–	–	–	–	–	–	–
298 K, 101 kPa	1.14	–	2.25	4.42	50.4	34.4	25.4	6.4	2.73
